The values that follow come from the NIST ThermoML archive (doi:10.1016/j.jct.2009.06.011).

A short description of this data set: activity coefficient (dimensionless); of the first substance listed, at infinite dilution; xn = mol fraction of the nth substance listed. As to conditions: 101 kPa, Liquid, Chromatography, x1 = 0.

± gives the expanded uncertainty stated by the source.

Regarding `C1CCCCC1` [cyclohexane] + CCCC[n+]1ccc(C)cc1.O=S(=O)([N-]S(=O)(=O)C(F)(F)F)C(F)(F)F, the activity coefficient was 8.93 ± 0.61 (298.15 K); 8.34 ± 0.57 (308.15 K); 7.76 ± 0.53 (318.15 K); 7.31 ± 0.5 (328.15 K); 6.96 ± 0.47 (338.15 K); 6.54 ± 0.45 (348.15 K). Besides, the activity coefficient runs as follows: (358.15 K) 6.23 ± 0.42; (368.15 K) 5.94 ± 0.4.

Regarding `CCc1ccccc1` [ethylbenzene] + CCCC[n+]1ccc(C)cc1.O=S(=O)([N-]S(=O)(=O)C(F)(F)F)C(F)(F)F, the activity coefficient was 1.45 ± 0.1 (318.15 K); 1.48 ± 0.1 (328.15 K); 1.5 ± 0.1 (338.15 K); 1.52 ± 0.1 (348.15 K); 1.54 ± 0.1 (358.15 K); 1.56 ± 0.1 (368.15 K).

Regarding `CCCCCCCCC` [nonane] + CCCC[n+]1ccc(C)cc1.O=S(=O)([N-]S(=O)(=O)C(F)(F)F)C(F)(F)F, the activity coefficient is, setting by setting: (298.15 K) 38.9 ± 2.7; (308.15 K) 35.5 ± 2.4; (318.15 K) 32.3 ± 2.2; (328.15 K) 29.8 ± 2; (338.15 K) 27.6 ± 1.9; (348.15 K) 25.6 ± 1.8. In addition, the activity coefficient amounted to 23.8 ± 1.6 (358.15 K) and 22 ± 1.5 (368.15 K).

As to `CCCCC` [pentane] + CCCC[n+]1ccc(C)cc1.O=S(=O)([N-]S(=O)(=O)C(F)(F)F)C(F)(F)F, the activity coefficient was determined as 12.9 ± 0.9 (298.15 K); 12 ± 0.8 (308.15 K); 11.2 ± 0.8 (318.15 K); 10.5 ± 0.7 (328.15 K); 9.89 ± 0.67 (338.15 K); 9.37 ± 0.64 (348.15 K). The activity coefficient amounted to 8.88 ± 0.61 (358.15 K) and 8.47 ± 0.58 (368.15 K).

Take `CC(C)=O` [acetone] + CCCC[n+]1ccc(C)cc1.O=S(=O)([N-]S(=O)(=O)C(F)(F)F)C(F)(F)F: the activity coefficient by setting is: (298.15 K) 0.398 ± 0.034; (308.15 K) 0.406 ± 0.034; (318.15 K) 0.415 ± 0.035; (328.15 K) 0.423 ± 0.035; (338.15 K) 0.43 ± 0.035; (348.15 K) 0.438 ± 0.035. Moreover, the activity coefficient runs as follows: (358.15 K) 0.445 ± 0.036; (368.15 K) 0.451 ± 0.036.

Turning to `C=CCCCC` [hex-1-ene] + CCCC[n+]1ccc(C)cc1.O=S(=O)([N-]S(=O)(=O)C(F)(F)F)C(F)(F)F, the activity coefficient (298.15 K) worked out at 7.4 ± 0.5; the activity coefficient (308.15 K) was determined as 7.11 ± 0.48; the activity coefficient (318.15 K) turned out to be 6.82 ± 0.47; the activity coefficient (328.15 K) came out at 6.58 ± 0.45; the activity coefficient (338.15 K) is 6.37 ± 0.43; the activity coefficient (348.15 K) was determined as 6.17 ± 0.42. Also, the activity coefficient is 5.99 ± 0.41 (358.15 K) and 5.82 ± 0.4 (368.15 K).

With `CCO` [ethanol] + CCCC[n+]1ccc(C)cc1.O=S(=O)([N-]S(=O)(=O)C(F)(F)F)C(F)(F)F, the activity coefficient (298.15 K) amounted to 1.91 ± 0.13; the activity coefficient (308.15 K) was found to be 1.72 ± 0.12; the activity coefficient (318.15 K) was determined as 1.56 ± 0.1; the activity coefficient (328.15 K) was 1.43 ± 0.09; the activity coefficient (338.15 K) stood at 1.31 ± 0.09; the activity coefficient (348.15 K) was 1.21 ± 0.08. Also, the activity coefficient reads like this: (358.15 K) 1.12 ± 0.07; (368.15 K) 1.04 ± 0.07.

For `C=CCCCCCC` [oct-1-ene] + CCCC[n+]1ccc(C)cc1.O=S(=O)([N-]S(=O)(=O)C(F)(F)F)C(F)(F)F, the activity coefficient by setting is: (298.15 K) 13.8 ± 0.9; (308.15 K) 13 ± 0.9; (318.15 K) 12.4 ± 0.8; (328.15 K) 11.8 ± 0.8; (338.15 K) 11.3 ± 0.8; (348.15 K) 10.9 ± 0.7. For the same compound, the activity coefficient (358.15 K) is 10.4 ± 0.7 and the activity coefficient (368.15 K) stood at 10.1 ± 0.7.

For `C1CCCCCC1` [cycloheptane] + CCCC[n+]1ccc(C)cc1.O=S(=O)([N-]S(=O)(=O)C(F)(F)F)C(F)(F)F, the activity coefficient by setting is: (298.15 K) 10.9 ± 0.7; (308.15 K) 10.1 ± 0.7; (318.15 K) 9.45 ± 0.64; (328.15 K) 8.9 ± 0.61; (338.15 K) 8.39 ± 0.57; (348.15 K) 7.9 ± 0.54. The activity coefficient is 7.46 ± 0.51 (358.15 K) and 7.14 ± 0.49 (368.15 K).

As to `C1CCCC1` [cyclopentane] + CCCC[n+]1ccc(C)cc1.O=S(=O)([N-]S(=O)(=O)C(F)(F)F)C(F)(F)F, the activity coefficient is, setting by setting: (298.15 K) 6.65 ± 0.45; (308.15 K) 6.25 ± 0.43; (318.15 K) 5.89 ± 0.4; (328.15 K) 5.59 ± 0.38; (338.15 K) 5.28 ± 0.36; (348.15 K) 5.03 ± 0.34. Also, the activity coefficient by setting is: (358.15 K) 4.81 ± 0.33; (368.15 K) 4.6 ± 0.31.

Turning to `CCCCCCC` [heptane] + CCCC[n+]1ccc(C)cc1.O=S(=O)([N-]S(=O)(=O)C(F)(F)F)C(F)(F)F, the activity coefficient runs as follows: (298.15 K) 20.4 ± 1.4; (308.15 K) 18.9 ± 1.3; (318.15 K) 17.7 ± 1.2; (328.15 K) 16.6 ± 1.1; (338.15 K) 15.6 ± 1.1; (348.15 K) 14.7 ± 1. The activity coefficient was 13.9 ± 1 (358.15 K) and 13.2 ± 0.9 (368.15 K).

On to `C=CCCC` [1-pentene] + CCCC[n+]1ccc(C)cc1.O=S(=O)([N-]S(=O)(=O)C(F)(F)F)C(F)(F)F, for which the activity coefficient (298.15 K) came to 5.81 ± 0.4; the activity coefficient (308.15 K) is 5.6 ± 0.38; the activity coefficient (318.15 K) is 5.42 ± 0.37; the activity coefficient (328.15 K) was determined as 5.24 ± 0.36; the activity coefficient (338.15 K) came out at 5.07 ± 0.35; the activity coefficient (348.15 K) was determined as 4.93 ± 0.34. Also, the activity coefficient (358.15 K) was 4.8 ± 0.33 and the activity coefficient (368.15 K) was 4.68 ± 0.32.

For `C1CCCCCCC1` [cyclooctane] + CCCC[n+]1ccc(C)cc1.O=S(=O)([N-]S(=O)(=O)C(F)(F)F)C(F)(F)F, the activity coefficient came out at 13.9 ± 1 (298.15 K); 12.9 ± 0.9 (308.15 K); 12 ± 0.8 (318.15 K); 11.2 ± 0.8 (328.15 K); 10.4 ± 0.7 (338.15 K); 9.81 ± 0.67 (348.15 K). For the same compound, the activity coefficient turned out to be 9.26 ± 0.63 (358.15 K) and 8.74 ± 0.6 (368.15 K).

Turning to `c1ccsc1` [thiophene] + CCCC[n+]1ccc(C)cc1.O=S(=O)([N-]S(=O)(=O)C(F)(F)F)C(F)(F)F, the activity coefficient is, setting by setting: (298.15 K) 0.609 ± 0.043; (308.15 K) 0.624 ± 0.043; (318.15 K) 0.637 ± 0.044; (328.15 K) 0.649 ± 0.044; (338.15 K) 0.661 ± 0.045; (348.15 K) 0.672 ± 0.046. Further, the activity coefficient came out at 0.683 ± 0.046 (358.15 K) and 0.694 ± 0.047 (368.15 K).

On to `CCCCO` [butan-1-ol] + CCCC[n+]1ccc(C)cc1.O=S(=O)([N-]S(=O)(=O)C(F)(F)F)C(F)(F)F, for which the activity coefficient (318.15 K) was 2.26 ± 0.15; the activity coefficient (328.15 K) was 2.05 ± 0.14; the activity coefficient (338.15 K) worked out at 1.87 ± 0.13; the activity coefficient (348.15 K) is 1.71 ± 0.11; the activity coefficient (358.15 K) stood at 1.57 ± 0.1; the activity coefficient (368.15 K) amounted to 1.46 ± 0.1.
